Test results published in ChEMBL document CHEMBL3885861, “Open TG-GATES”.

Species on record: Rattus norvegicus
Assay: Open TG-GATES - Regimen: Single
Assay type: toxicity, organism-based, Sprague-Dawley
Design: regimen Single, gender Male, age 6 weeks
Conditions: in vivo, po, 10 mg/kg, route gavage, dose level Low; for APTT / Bas / Eos / Fbg / Hb / Ht / Lym / MCH / MCHC / MCV / Mono / Neu / PT / Plat / RBC / Ret / WBC: tissue Blood; for KIDNEY_L / KIDNEY_R / KIDNEY_TOTAL: tissue Kidney; for LIVER: tissue Liver; for ALP / ALT / AST / BUN / CRE / Ca / Cl / DBIL / GLC / IP / K / LDH / Na / PL / RALB / TBIL / TC / TG / TP / gamma-GTP: tissue Plasma

Work on `COc1cc([C@@H]2c3cc4c(cc3[C@@H](O[C@@H]3O[C@@H]5CO[C@@H](C)O[C@H]5[C@H](O)[C@H]3O)[C@H]3COC(=O)[C@H]23)OCO4)cc(OC)c1O` [ETOPOSIDE] yielded a TERMINAL_BW (3 h) of 200.9 g, an APTT (3 h) of 16.9 s and a Bas (3 h) of 0%. It also gave an Eos (3 h) of 1.2%, a Fbg (3 h) of 201 mg/dL and a Hb (3 h) of 13.4 g/dL. For the same molecule, the Ht (3 h) was 39.9%, the Lym (3 h) was 76.4% and the MCH (3 h) was 22.1 pg. For the same molecule, the MCHC (3 h) was 33.7%, the MCV (3 h) was 65.7 fL and the Mono (3 h) was 8%. For the same molecule, the Neu (3 h) was 14.8%, the PT (3 h) was 12.3 s and the Plat (3 h) was 115.3 x10_4/uL. The RBC (3 h) was 606.6 x10_4/ul, the Ret (3 h) was 10.2% and the WBC (3 h) was 99.6 x10_2/uL. The KIDNEY_L (3 h) was 0.9 g, the KIDNEY_R (3 h) was 0.9 g and the KIDNEY_TOTAL (3 h) was 1.9 g. For the same molecule, the LIVER (3 h) was 9.4 g, the ALP (3 h) was 896.4 IU/L and the ALT (3 h) was 34.2 IU/L. It also gave an AST (3 h) of 67.2 IU/L, a BUN (3 h) of 13 mg/dL and a CRE (3 h) of 0.5 mg/dL. For the same molecule, the Ca (3 h) was 10.7 mg/dL, the Cl (3 h) was 104.6 meq/L and the DBIL (3 h) was 0.012 mg/dL. For the same molecule, the GLC (3 h) was 192.8 mg/dL, the IP (3 h) was 9 mg/dL and the K (3 h) was 4.5 meq/L. For the same molecule, the LDH (3 h) was 114.2 IU/L, the Na (3 h) was 141.8 meq/L and the PL (3 h) was 134 mg/dL. It also gave an RALB (3 h) of 3.5 g/dL, a TBIL (3 h) of 0.3 mg/dL and a TC (3 h) of 75.8 mg/dL. It also gave a TG (3 h) of 46.4 mg/dL, a TP (3 h) of 5.4 g/dL and a gamma-GTP (3 h) of 2 IU/L. It also gave a TERMINAL_BW (6 h) of 198.3 g, an APTT (6 h) of 16.9 s and a Bas (6 h) of 0%. For the same molecule, the Eos (6 h) was 1%, the Fbg (6 h) was 194.4 mg/dL and the Hb (6 h) was 13.6 g/dL. The Ht (6 h) was 40.8%, the Lym (6 h) was 79.8% and the MCH (6 h) was 21.6 pg. It also gave an MCHC (6 h) of 33.3%, an MCV (6 h) of 64.9 fL and a Mono (6 h) of 6.4%. It also gave a Neu (6 h) of 13.2%, a PT (6 h) of 11.8 s and a Plat (6 h) of 110.4 x10_4/uL. It also gave an RBC (6 h) of 629.6 x10_4/ul, a Ret (6 h) of 9.8% and a WBC (6 h) of 78.9 x10_2/uL. It also gave a KIDNEY_L (6 h) of 1 g, a KIDNEY_R (6 h) of 1 g and a KIDNEY_TOTAL (6 h) of 2 g. The LIVER (6 h) was 8.6 g, the ALP (6 h) was 862.6 IU/L and the ALT (6 h) was 35 IU/L. The AST (6 h) was 66.8 IU/L, the BUN (6 h) was 10.8 mg/dL and the CRE (6 h) was 0.6 mg/dL. It also gave a Ca (6 h) of 10.5 mg/dL, a Cl (6 h) of 104.4 meq/L and a DBIL (6 h) of 0.02 mg/dL. It also gave a GLC (6 h) of 195.4 mg/dL, an IP (6 h) of 10.2 mg/dL and a K (6 h) of 4.6 meq/L. For the same molecule, the LDH (6 h) was 99.4 IU/L, the Na (6 h) was 142 meq/L and the PL (6 h) was 128 mg/dL. It also gave an RALB (6 h) of 3.3 g/dL, a TBIL (6 h) of 0.4 mg/dL and a TC (6 h) of 72.2 mg/dL. The TG (6 h) was 42.6 mg/dL, the TP (6 h) was 5.2 g/dL and the gamma-GTP (6 h) was 0.8 IU/L. For the same molecule, the TERMINAL_BW (9 h) was 198.7 g, the APTT (9 h) was 16.8 s and the Bas (9 h) was 0%. The Eos (9 h) was 0.6%, the Fbg (9 h) was 184.6 mg/dL and the Hb (9 h) was 13.5 g/dL. For the same molecule, the Ht (9 h) was 39.7%, the Lym (9 h) was 77% and the MCH (9 h) was 22.1 pg. The MCHC (9 h) was 33.9%, the MCV (9 h) was 65.1 fL and the Mono (9 h) was 6.8%. For the same molecule, the Neu (9 h) was 15.8%, the PT (9 h) was 11 s and the Plat (9 h) was 113.8 x10_4/uL. The RBC (9 h) was 611 x10_4/ul, the Ret (9 h) was 8.6% and the WBC (9 h) was 75.9 x10_2/uL. For the same molecule, the KIDNEY_L (9 h) was 0.9 g, the KIDNEY_R (9 h) was 1 g and the KIDNEY_TOTAL (9 h) was 1.9 g. For the same molecule, the LIVER (9 h) was 8.1 g, the ALP (9 h) was 777.2 IU/L and the ALT (9 h) was 32.8 IU/L. For the same molecule, the AST (9 h) was 64.6 IU/L, the BUN (9 h) was 10.2 mg/dL and the CRE (9 h) was 0.6 mg/dL. It also gave a Ca (9 h) of 10.6 mg/dL, a Cl (9 h) of 105.6 meq/L and a DBIL (9 h) of 0.036 mg/dL. It also gave a GLC (9 h) of 198.8 mg/dL, an IP (9 h) of 10.4 mg/dL and a K (9 h) of 4.6 meq/L. The LDH (9 h) was 74.6 IU/L, the Na (9 h) was 143.4 meq/L and the PL (9 h) was 127.2 mg/dL. For the same molecule, the RALB (9 h) was 3.4 g/dL, the TBIL (9 h) was 0.4 mg/dL and the TC (9 h) was 70.8 mg/dL. The TG (9 h) was 35.2 mg/dL, the TP (9 h) was 5.3 g/dL and the gamma-GTP (9 h) was 1.6 IU/L. The TERMINAL_BW (24 h) was 209.8 g, the APTT (24 h) was 15.8 s and the Bas (24 h) was 0%. The Eos (24 h) was 1%, the Fbg (24 h) was 206.6 mg/dL and the Hb (24 h) was 13.3 g/dL. The Ht (24 h) was 39.5%, the Lym (24 h) was 79.2% and the MCH (24 h) was 21.7 pg. The MCHC (24 h) was 33.7%, the MCV (24 h) was 64.3 fL and the Mono (24 h) was 6.6%. For the same molecule, the Neu (24 h) was 13.6%, the PT (24 h) was 11.6 s and the Plat (24 h) was 108.6 x10_4/uL. For the same molecule, the RBC (24 h) was 613.8 x10_4/ul, the Ret (24 h) was 8.9% and the WBC (24 h) was 89.3 x10_2/uL. It also gave a KIDNEY_L (24 h) of 1 g, a KIDNEY_R (24 h) of 1 g and a KIDNEY_TOTAL (24 h) of 2 g. It also gave an LIVER (24 h) of 10.2 g, an ALP (24 h) of 1017 IU/L and an ALT (24 h) of 33 IU/L. It also gave an AST (24 h) of 68 IU/L, a CRE (24 h) of 0.6 mg/dL and a Ca (24 h) of 11.1 mg/dL. For the same molecule, the Cl (24 h) was 104.6 meq/L, the DBIL (24 h) was 0.012 mg/dL and the GLC (24 h) was 200.6 mg/dL. For the same molecule, the IP (24 h) was 8.1 mg/dL, the K (24 h) was 4.6 meq/L and the LDH (24 h) was 109.6 IU/L. It also gave a Na (24 h) of 141.6 meq/L, a PL (24 h) of 155.2 mg/dL and an RALB (24 h) of 3.5 g/dL. The TBIL (24 h) was 0.3 mg/dL, the TC (24 h) was 87.8 mg/dL and the TG (24 h) was 82.6 mg/dL. The TP (24 h) was 5.5 g/dL and the gamma-GTP (24 h) was 1.4 IU/L.
